Measured values from PMC9687610, “Adenosine-Mimicking Derivatives of 3-Aminopyrazine-2-Carboxamide: Towards Inhibitors of Prolyl-tRNA Synthetase with Antimycobacterial Activity” (Biomolecules, 2022).
pIC50: −log10 of the molar value. ≈ marks a conversion by molar mass, not a printed value. Like-named read-outs stand apart in the source and are kept apart here.

Legend:
[1] = tested on: Trichophyton interdigitale CCM 8377 (ATCC 9533); assay: Antifungal microdilution broth (EUCAST), TI; type: cell-based; conditions: Trichophyton interdigitale, 72 h, read-out: TI MIC
[2] = tested on: Aspergillus flavus CCM 8363; assay: Antifungal microdilution broth (EUCAST), AFla; type: cell-based; conditions: Aspergillus flavus, CCM8363; read after 24 h; read-out: AFla MIC
[3] = tested on: Mycobacterium smegmatis DSM 43465 (ATCC 607); assay: Microplate Alamar Blue Assay (MABA), M. smegmatis; type: cell-based; conditions: for MIC: Mycolicibacterium smegmatis, read-out: M. smegmatis MIC
[4] = tested on: Aspergillus fumigatus ATCC 204305; assay: Antifungal microdilution broth (EUCAST), AF; type: cell-based; conditions: Aspergillus fumigatus, ATCC204305; read after 24 h; read-out: AF MIC
[5] = tested on: Staphylococcus epidermidis CCM 4418 (ATCC 12228); assay: Antibacterial microdilution broth (EUCAST), SE; type: cell-based; conditions: read after 24 h, read-out: SE MIC
[6] = tested on: Candida albicans CCM 8320 (ATCC 24433); assay: Antifungal microdilution broth (EUCAST), CA; type: cell-based; conditions: Candida albicans; read after 24 h; read-out: CA MIC
[7] = tested on: Mycobacterium tuberculosis H37Rv CNCTC My 331/88 (ATCC 27294); assay: MABA microdilution, Mtb H37Rv; type: cell-based; conditions: for MIC: Mycobacterium tuberculosis, read-out: Mtb H37Rv MIC; for activity on Mtb H37Rv and both MDR strains (in words): virulent strain Mtb H37Rv and MDR isolates IZAK, MATI
[8] = tested on: Candida krusei CCM 8271 (ATCC 6258); assay: Antifungal microdilution broth (EUCAST), CK; type: cell-based; conditions: Pichia kudriavzevii; read after 24 h; read-out: CK MIC
[9] = tested on: Staphylococcus aureus subsp. aureus CCM 4223 (ATCC 29213); assay: Antibacterial microdilution broth (EUCAST), SA; type: cell-based; conditions: Staphylococcus aureus; read after 24 h; read-out: SA MIC
[10] = tested on: HepG2 human hepatocellular carcinoma cells; assay: In vitro HepG2 cytotoxicity (CellTiter 96); conditions: Homo sapiens, HepG2, 24 h, read-out: HepG2 IC50, 24 h incubation; * limit = highest evaluated concentration (precipitation in medium); ** over the 1000 µM limit
[11] = tested on: Enterococcus faecalis CCM 4224 (ATCC 29212); assay: Antibacterial microdilution broth (EUCAST), EF; type: cell-based; conditions: Enterococcus faecalis
[12] = tested on: Candida parapsilosis CCM 8260 (ATCC 22019); assay: Antifungal microdilution broth (EUCAST), CP; type: cell-based; conditions: Lodderomyces parapsilosis; read after 24 h; read-out: CP MIC
[13] = tested on: Mycobacterium tuberculosis H37Ra ITM-M006710 (ATCC 9431); assay: Microplate Alamar Blue Assay (MABA), Mtb H37Ra; type: cell-based; conditions: Mycobacterium tuberculosis, 120 h, pH 6.6, MABA, Middlebrook 7H9 broth pH 6.6, resazurin after 120 h; read-out: Mtb H37Ra MIC
[14] = tested on: Pseudomonas aeruginosa CCM 3955 (ATCC 27853); assay: Antibacterial microdilution broth (EUCAST), PA; type: cell-based; conditions: Pseudomonas aeruginosa; read after 24 h; read-out: PA MIC
[15] = tested on: Acinetobacter baumannii DSM 30007 (ATCC 19606); assay: Antibacterial microdilution broth (EUCAST), ACI; type: cell-based; conditions: Acinetobacter baumannii; read after 24 h; read-out: ACI MIC
[16] = tested on: Klebsiella pneumoniae CCM 4415 (ATCC 10031); assay: Antibacterial microdilution broth (EUCAST), KP; conditions: read after 24 h
[17] = tested on: Escherichia coli CCM 3954 (ATCC 25922); assay: Antibacterial microdilution broth (EUCAST), EC; type: cell-based; conditions: Escherichia coli; read after 24 h; read-out: EC MIC
[18] = tested on: M. aurum DSM 43999 (ATCC 23366); assay: Microplate Alamar Blue Assay (MABA), M. aurum; type: cell-based; conditions: Mycolicibacterium aurum; MABA, resazurin after 72 h; read-out: M. aurum MIC
[19] = tested on: Lichtheimia corymbifera CCM 8077; assay: Antifungal microdilution broth (EUCAST), LC; type: cell-based; conditions: Lichtheimia corymbifera, CCM8077; read after 24 h; read-out: LC MIC
[20] = tested on: Staphylococcus aureus subsp. aureus methicillin-resistant (MRSA) CCM 4750 (ATCC 43300); assay: Antibacterial microdilution broth (EUCAST), MRSA; type: cell-based; conditions: Staphylococcus aureus; read after 24 h; read-out: MRSA MIC
[21] = tested on: Candida tropicalis CCM 8264 (ATCC 750); assay: Antifungal microdilution broth (EUCAST), CT; type: cell-based; conditions: Candida tropicalis; read after 24 h; read-out: CT MIC
[22] = read after 24 h, read-out: EF MIC

SMILES | MIC [1] [µM] | MIC [2] [µM] | MIC ([3]; MABA, resazurin after 48 h) [µg/mL] | MIC [4] [µM] | MIC [5] [µM] | MIC [6] [µM] | MIC [7] [µg/mL] | MIC [8] [µM] | MIC [9] [µM] | pIC50 [10] | MIC [11, 22] [µM] | MIC [12] [µM] | MIC [13] [µg/mL] | MIC [14] [µM] | MIC [15] [µM] | KP MIC [16] [µM] | MIC [17] [µM] | MIC [18] [µg/mL] | MIC [19] [µM] | MIC [20] [µM] | further results
NC(=O)c1nccnc1NC(=O)c1ccc(F)cc1 [Compound 12] | > 500 | > 500 | 250 (≈ 961 µM) | > 500 | > 500 | > 500 | 50 (≈ 192 µM) | > 500 | > 500 | < 3.60 | > 500 | > 500 | 31.2 (≈ 120 µM) | > 500 | > 500 | > 500 | > 500 | ≥ 500 | > 500 | > 500 | activity on Mtb H37Rv and both MDR strains (in words) [7]: significant activity; MIC [21]: > 500 µM
O=C(O)c1cn(C2CC2)c2cc(N3CCNCC3)c(F)cc2c1=O [CIP, ciprofloxacin, reference compound] | – | – | 0.063 (≈ 0.19 µM) | – | – | – | 0.2 (≈ 0.604 µM) | – | – | – | – | – | 0.25 (≈ 0.754 µM) | – | – | – | – | 0.016 (≈ 0.0483 µM) | – | – | MIC ([11]; internal quality control, no visible growth, 24 h, read-out: MIC, visual detection): 1.02 µg/mL
Cc1ccc(C(=O)Nc2nccnc2C(N)=O)cc1 [Compound 4] | > 500 | > 500 | ≥ 250 | > 500 | > 500 | > 500 | 6.25 (≈ 24.4 µM) | > 500 | > 500 | < 4.00 | > 500 | > 500 | 7.81 (≈ 30.5 µM) | > 500 | > 500 | > 500 | > 500 | ≥ 250 | > 500 | > 500 | activity on Mtb H37Rv and both MDR strains (in words) [7]: significant activity; MIC [21]: > 500 µM
NC(=O)c1nccnc1NC(=O)c1ccc(Cl)cc1 [Compound 15] | > 125 | > 125 | – | > 125 | > 500 | > 125 | 6.25 (≈ 22.6 µM) | > 125 | > 500 | < 4.00 | > 500 | > 125 | 3.91 (≈ 14.1 µM) | > 500 | > 500 | > 500 | > 500 | ≥ 250 | > 125 | > 500 | activity against M. smegmatis (in words) [3]: high activity; MIC ([3]; 48 h): 3.91 µg/mL (≈ 14.1 µM); activity on Mtb H37Rv and both MDR strains (in words) [7]: significant activity; MIC [21]: > 125 µM
Cc1cccc(C(=O)Nc2nccnc2C(N)=O)c1 [Compound 3] | > 500 | > 500 | ≥ 250 | > 500 | > 500 | > 500 | – | > 500 | > 500 | < 4.00 | > 500 | > 500 | 62.5 (≈ 244 µM) | > 500 | > 500 | > 500 | > 500 | ≥ 250 | > 500 | > 500 | melting point: 226.9 to 228.8 °C; MIC [21]: > 500 µM
